Reference: the supplement of paper PMC10307832

What was measured:
Assay in all cases: relative viability (nuclei count vs DMSO), 5 days (fraction); higher = more cells survive
Alisertib + Decitabine = compound: COc1cc(Nc2ncc3c(n2)-c2ccc(Cl)cc2C(c2c(F)cccc2OC)=NC3)ccc1C(=O)O [Alisertib] + Nc1ncn([C@H]2C[C@H](O)[C@@H](CO)O2)c(=O)n1 [Decitabine] (partner 2 µM)
In short: (§1)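 For relative viability, nuclei counts in treated wells were divided by those in vehicle wells. Lung cancer cell lines had been pin-tool dosed in 1536-well plates the day after seeding and cultured for 5 days, then fixed and stained in one step (final 0.05% Triton X-100, 1% formaldehyde, 1 ug/ml Hoechst) and imaged at 4×. Doses were one drug alone or a fixed anchor-drug dose plus five library-drug doses (not always all listed) in √10 steps, and values are duplicate-plate medians.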

Alisertib + Bortezomib = compound: COc1cc(Nc2ncc3c(n2)-c2ccc(Cl)cc2C(c2c(F)cccc2OC)=NC3)ccc1C(=O)O [Alisertib] + CC(C)C[C@H](NC(=O)[C@H](Cc1ccccc1)NC(=O)c1cnccn1)B(O)O [Bortezomib] (partner 0.002 µM)
In short: as §1

Alisertib + Tozasertib = compound: COc1cc(Nc2ncc3c(n2)-c2ccc(Cl)cc2C(c2c(F)cccc2OC)=NC3)ccc1C(=O)O [Alisertib] + Cc1cc(Nc2cc(N3CCN(C)CC3)nc(Sc3ccc(NC(=O)C4CC4)cc3)n2)n[nH]1 [Tozasertib] (partner 0.1 µM)
In short: as §1

Alisertib + AZD7762 = compound: COc1cc(Nc2ncc3c(n2)-c2ccc(Cl)cc2C(c2c(F)cccc2OC)=NC3)ccc1C(=O)O [Alisertib] + NC(=O)Nc1cc(-c2cccc(F)c2)sc1C(=O)N[C@H]1CCCNC1 [AZD7762] (partner 0.2 µM)
In short: as §1

| Cell Line | relative viability (Alisertib + Decitabine; first compound 0.005 µM) | relative viability (Alisertib + Decitabine; first compound 0.01581 µM) | relative viability (Alisertib + Decitabine; first compound 0.05 µM) | relative viability (Alisertib + Decitabine; first compound 0.1581 µM) | relative viability (Alisertib + Decitabine; first compound 0.5 µM) | relative viability (Alisertib + Bortezomib; first compound 0.005 µM) | relative viability (Alisertib + Bortezomib; first compound 0.01581 µM) | relative viability (Alisertib + Bortezomib; first compound 0.05 µM) | relative viability (Alisertib + Bortezomib; first compound 0.1581 µM) | relative viability (Alisertib + Bortezomib; first compound 0.5 µM) | relative viability (Alisertib + Tozasertib; first compound 0.005 µM) | relative viability (Alisertib + Tozasertib; first compound 0.01581 µM) | relative viability (Alisertib + Tozasertib; first compound 0.05 µM) | relative viability (Alisertib + Tozasertib; first compound 0.1581 µM) | relative viability (Alisertib + Tozasertib; first compound 0.5 µM) | relative viability (Alisertib + AZD7762; first compound 0.005 µM) | relative viability (Alisertib + AZD7762; first compound 0.01581 µM) | relative viability (Alisertib + AZD7762; first compound 0.05 µM) | relative viability (Alisertib + AZD7762; first compound 0.1581 µM) | relative viability (Alisertib + AZD7762; first compound 0.5 µM) |
| --- | --- | --- | --- | --- | --- | --- | --- | --- | --- | --- | --- | --- | --- | --- | --- | --- | --- | --- | --- | --- |
| LCLC-97TM1 | 0.235 | 0.168 | 0.114 | 0.115 | 0.144 | 0.51 | 0.725 | 0.108 | 0.0791 | 0.0549 | 0.203 | 0.185 | 0.166 | 0.181 | 0.149 | 0.192 | 0.307 | 0.207 | 0.103 | 0.0633 |
| HARA | 0.524 | 0.58 | 0.334 | 0.208 | 0.145 | 1.06 | 1.11 | 0.651 | 0.191 | 0.108 | 0.103 | 0.0888 | 0.0929 | 0.104 | 0.0887 | 0.28 | 0.567 | 0.339 | 0.217 | 0.0911 |
| HCC-78 | 0.635 | 0.507 | 0.316 | 0.29 | 0.298 | 0.522 | 0.272 | 0.24 | 0.19 | 0.175 | 0.446 | 0.273 | 0.281 | 0.245 | 0.211 | 0.544 | 0.569 | 0.363 | 0.23 | 0.28 |
| NCI-H1666 | 0.785 | 0.63 | 0.615 | 0.537 | 0.441 | 0.694 | 0.597 | 0.505 | 0.317 | 0.267 | 0.625 | 0.412 | 0.365 | 0.391 | 0.355 | 0.768 | 0.698 | 0.636 | 0.477 | 0.375 |
| NCI-H2347 | 0.574 | 0.582 | 0.523 | 0.51 | 0.374 | 0.733 | 1.09 | 0.911 | 0.584 | 0.466 | 0.517 | 0.549 | 0.415 | 0.401 | 0.273 | 0.741 | 0.671 | 0.585 | 0.387 | 0.37 |
| PC-14 | 0.173 | 0.187 | 0.154 | 0.057 | 0.0492 | 0.876 | 0.732 | 0.515 | 0.208 | 0.0801 | 0.566 | 0.492 | 0.26 | 0.0568 | 0.06 | 0.226 | 0.38 | 0.272 | 0.0966 | 0.0539 |
| NCI-H2023 | 0.252 | 0.193 | 0.145 | 0.109 | 0.0849 | 0.904 | 0.824 | 0.539 | 0.199 | 0.0763 | 0.419 | 0.368 | 0.263 | 0.215 | 0.0951 |  |  |  |  |  |
| 201T | 0.837 | 0.847 | 0.72 | 0.582 | 0.802 | 1.05 | 1.07 | 1.08 | 1.07 | 0.694 | 0.899 | 0.681 | 0.579 | 0.407 | 0.354 | 0.618 | 0.753 | 0.675 | 0.46 | 0.277 |
| NCI-H1915 | 0.257 | 0.249 | 0.197 | 0.198 | 0.176 | 0.763 | 0.811 | 0.607 | 0.327 | 0.237 | 0.404 | 0.272 | 0.241 | 0.193 | 0.179 | 0.531 | 0.597 | 0.277 | 0.254 | 0.206 |
| NCI-H2009 | 0.338 | 0.388 | 0.292 | 0.194 | 0.168 | 0.952 | 0.91 | 0.392 | 0.208 | 0.167 | 0.732 | 0.663 | 0.427 | 0.336 | 0.22 |  |  |  |  |  |
| BEN | 0.607 | 0.51 | 0.304 | 0.363 | 0.325 | 0.691 | 0.867 | 0.398 | 0.229 | 0.2 | 0.531 | 0.457 | 0.375 | 0.456 | 0.4 | 0.57 | 0.592 | 0.359 | 0.335 | 0.389 |
| PC-3 [JPC-3] | 0.829 | 0.822 | 0.661 | 0.62 | 0.51 | 0.796 | 0.828 | 0.775 | 0.539 | 0.39 | 0.893 | 0.814 | 0.548 | 0.551 | 0.387 | 0.649 | 0.778 | 0.705 | 0.403 | 0.317 |
| SK-MES-1 | 0.373 | 0.346 | 0.225 | 0.158 | 0.167 |  |  |  |  |  | 0.819 | 0.705 | 0.429 | 0.207 | 0.135 |  |  |  |  |  |
| NCI-H838 | 0.402 | 0.334 | 0.253 | 0.213 | 0.198 | 0.774 | 0.655 | 0.422 | 0.25 | 0.158 | 0.272 | 0.262 | 0.231 | 0.195 | 0.201 | 0.943 | 0.852 | 0.715 | 0.669 | 0.626 |
| NCI-H1355 | 0.347 | 0.358 | 0.229 | 0.177 | 0.154 | 1.18 | 1.22 | 0.993 | 0.368 | 0.206 | 0.53 | 0.462 | 0.297 | 0.192 | 0.217 | 0.707 | 0.641 | 0.364 | 0.168 | 0.146 |
| NCI-H1975 | 0.32 | 0.359 | 0.142 | 0.191 | 0.153 | 0.324 | 0.334 | 0.215 | 0.159 | 0.152 | 0.695 | 0.65 | 0.336 | 0.212 | 0.124 | 0.658 | 0.618 | 0.521 | 0.33 | 0.192 |
| LK-2 | 0.294 | 0.321 | 0.165 | 0.143 | 0.127 |  |  |  |  |  | 0.167 | 0.184 | 0.164 | 0.197 | 0.185 | 0.321 | 0.382 | 0.205 | 0.153 | 0.14 |
